The record followed here is US5607937A, “Piperazides of substituted phenylalanine derivatives as thrombin inhibitors” (priority 1993, dated 1997).

Where “and” joins values, the source holds several entries; their conditions need not be identical. Equal values may be shown once. Where a name gives a salt, the structure may show the parent alone. Read-outs that look alike come from different tables or passages of the source.

Experiment [1] concerns the target plasmin (Homo sapiens, UniProt P00747). Nature of the experiment: inhibition of plasmin, dissociation constant Ki.
Experiment [2] has as its target plasma kallikrein (Homo sapiens, UniProt P03952). The experiment can be described thus: inhibition of plasma kallikrein, dissociation constant Ki.
The target of experiment [3] is glandular kallikrein (Sus scrofa, UniProt P00752). The experiment can be described thus: inhibition of glandular kallikrein, dissociation constant Ki.
Experiment [4] addresses T1, thrombin (Bos taurus, UniProt P00735). Nature of the experiment: biochemical.
Experiment [5] has as its target T2, trypsin (Bos taurus, UniProt P00760).
T2 sequence (P00760 24-246): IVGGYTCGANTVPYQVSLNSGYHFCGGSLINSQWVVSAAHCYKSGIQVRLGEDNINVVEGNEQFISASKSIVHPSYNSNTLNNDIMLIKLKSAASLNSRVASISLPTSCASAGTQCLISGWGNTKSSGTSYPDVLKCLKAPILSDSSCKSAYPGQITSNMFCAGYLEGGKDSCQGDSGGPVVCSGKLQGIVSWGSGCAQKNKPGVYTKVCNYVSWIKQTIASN
Nature of the experiment: inhibition of trypsin, dissociation constant Ki. More on the design: thrombin and the related enzymes trypsin, plasmin, factor Xa, factor XIIa. Type of experiment: biochemical. Conditions: Table 1; read-out: Ki, Trypsin. The method, then: (§1) The biological activity of the compounds of the present invention was determined in vitro as well as in vivo.

Experiment [6] has as its target T3, factor XIIa (Homo sapiens, UniProt P00748).
T3 sequence (P00748 373-615 limits assumed): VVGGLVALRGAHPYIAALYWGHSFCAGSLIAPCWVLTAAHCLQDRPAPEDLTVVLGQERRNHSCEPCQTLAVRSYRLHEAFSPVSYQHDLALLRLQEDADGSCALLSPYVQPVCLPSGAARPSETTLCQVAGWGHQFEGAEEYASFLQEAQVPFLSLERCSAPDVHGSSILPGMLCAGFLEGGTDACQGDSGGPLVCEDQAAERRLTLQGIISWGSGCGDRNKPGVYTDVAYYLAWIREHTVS
Nature of the experiment: inhibition of factor XIIa, dissociation constant Ki.

Experiment [7] relates to coagulation in human plasma. Nature of the experiment: thrombin time (TT) in human plasma.
The test system of experiment [8] is coagulation in human plasma. The experiment can be described thus: activated partial thromboplastin time (aPTT) in human plasma.
Experiment [9] has as its target factor Xa (Bos taurus, UniProt P00743). The experiment can be described thus: inhibition of factor Xa, dissociation constant Ki. Type of experiment: biochemical. The following applies: Table 1. The method, then:
as §1

Experiment [10] concerns coagulation in human plasma. Nature of the experiment: prothrombin time (PT, Quick value) in human plasma.
The target in experiment [11] is tPA (Homo sapiens, UniProt P00750). The experiment can be described thus: inhibition of tPA, dissociation constant Ki.
Experiment [12] deals with T1, thrombin. Conditions: read-out: Ki, Thrombin; Table 1.

plasmin, sequence (P00747 581-810 limits assumed): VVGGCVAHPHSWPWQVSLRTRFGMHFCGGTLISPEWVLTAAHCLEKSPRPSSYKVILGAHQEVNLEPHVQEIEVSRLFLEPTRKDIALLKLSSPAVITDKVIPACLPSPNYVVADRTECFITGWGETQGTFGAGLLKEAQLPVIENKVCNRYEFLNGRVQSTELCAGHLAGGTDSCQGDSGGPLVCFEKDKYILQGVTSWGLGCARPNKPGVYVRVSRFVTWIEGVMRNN
plasmin, sequence (P00747 97-580 partner limits assumed): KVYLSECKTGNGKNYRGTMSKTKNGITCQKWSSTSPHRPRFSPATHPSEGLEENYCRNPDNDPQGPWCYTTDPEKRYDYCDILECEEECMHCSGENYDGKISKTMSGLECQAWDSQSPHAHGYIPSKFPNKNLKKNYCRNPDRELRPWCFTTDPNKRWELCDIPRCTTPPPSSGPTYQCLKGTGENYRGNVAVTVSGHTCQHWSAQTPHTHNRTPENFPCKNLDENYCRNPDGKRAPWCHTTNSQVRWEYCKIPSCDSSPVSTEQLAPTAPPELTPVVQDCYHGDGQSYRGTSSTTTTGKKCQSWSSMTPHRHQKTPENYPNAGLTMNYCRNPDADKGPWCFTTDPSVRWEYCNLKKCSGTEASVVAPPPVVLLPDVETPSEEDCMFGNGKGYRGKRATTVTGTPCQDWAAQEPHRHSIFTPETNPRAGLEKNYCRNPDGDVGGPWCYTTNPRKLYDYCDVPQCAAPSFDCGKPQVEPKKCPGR
glandular kallikrein, sequence (P00752 8-246): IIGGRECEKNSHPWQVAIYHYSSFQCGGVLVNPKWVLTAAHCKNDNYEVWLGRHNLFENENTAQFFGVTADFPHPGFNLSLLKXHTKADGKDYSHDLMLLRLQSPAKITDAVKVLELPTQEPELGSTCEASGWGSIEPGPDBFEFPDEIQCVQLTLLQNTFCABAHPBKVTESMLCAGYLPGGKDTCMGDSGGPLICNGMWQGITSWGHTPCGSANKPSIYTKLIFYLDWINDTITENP
plasma kallikrein, sequence (P03952 391-638 limits assumed, species assumed): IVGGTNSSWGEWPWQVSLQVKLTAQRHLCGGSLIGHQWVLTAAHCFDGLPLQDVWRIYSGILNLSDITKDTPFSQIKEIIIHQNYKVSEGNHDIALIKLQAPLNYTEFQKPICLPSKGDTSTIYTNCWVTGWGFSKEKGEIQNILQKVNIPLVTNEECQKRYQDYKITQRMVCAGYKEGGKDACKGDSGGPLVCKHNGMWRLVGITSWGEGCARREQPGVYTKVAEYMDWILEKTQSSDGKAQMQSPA
plasma kallikrein, sequence (P03952 20-390 partner limits assumed, species assumed): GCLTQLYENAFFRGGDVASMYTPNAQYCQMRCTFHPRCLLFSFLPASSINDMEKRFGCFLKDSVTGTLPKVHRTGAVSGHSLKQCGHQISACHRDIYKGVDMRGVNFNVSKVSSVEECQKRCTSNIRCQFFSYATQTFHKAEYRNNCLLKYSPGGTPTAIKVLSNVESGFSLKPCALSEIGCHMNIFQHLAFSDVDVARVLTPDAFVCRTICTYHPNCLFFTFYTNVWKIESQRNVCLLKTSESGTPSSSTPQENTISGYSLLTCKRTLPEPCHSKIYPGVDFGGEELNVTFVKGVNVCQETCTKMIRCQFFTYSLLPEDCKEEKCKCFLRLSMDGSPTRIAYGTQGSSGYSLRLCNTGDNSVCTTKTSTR
factor Xa, sequence (P00743 234-492 limits assumed): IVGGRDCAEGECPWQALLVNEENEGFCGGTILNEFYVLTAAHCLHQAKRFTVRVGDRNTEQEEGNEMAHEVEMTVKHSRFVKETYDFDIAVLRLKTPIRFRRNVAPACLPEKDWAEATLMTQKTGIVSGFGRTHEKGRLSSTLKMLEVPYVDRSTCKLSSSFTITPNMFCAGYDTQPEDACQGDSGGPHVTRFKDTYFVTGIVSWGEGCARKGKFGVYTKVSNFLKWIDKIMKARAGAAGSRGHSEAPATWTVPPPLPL
factor Xa, sequence (P00743 41-180 partner limits assumed): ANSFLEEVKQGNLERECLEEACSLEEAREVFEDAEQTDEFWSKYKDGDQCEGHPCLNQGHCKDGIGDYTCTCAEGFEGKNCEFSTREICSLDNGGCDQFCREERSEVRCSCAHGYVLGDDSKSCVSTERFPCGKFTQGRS
tPA, sequence (P00750 36-562): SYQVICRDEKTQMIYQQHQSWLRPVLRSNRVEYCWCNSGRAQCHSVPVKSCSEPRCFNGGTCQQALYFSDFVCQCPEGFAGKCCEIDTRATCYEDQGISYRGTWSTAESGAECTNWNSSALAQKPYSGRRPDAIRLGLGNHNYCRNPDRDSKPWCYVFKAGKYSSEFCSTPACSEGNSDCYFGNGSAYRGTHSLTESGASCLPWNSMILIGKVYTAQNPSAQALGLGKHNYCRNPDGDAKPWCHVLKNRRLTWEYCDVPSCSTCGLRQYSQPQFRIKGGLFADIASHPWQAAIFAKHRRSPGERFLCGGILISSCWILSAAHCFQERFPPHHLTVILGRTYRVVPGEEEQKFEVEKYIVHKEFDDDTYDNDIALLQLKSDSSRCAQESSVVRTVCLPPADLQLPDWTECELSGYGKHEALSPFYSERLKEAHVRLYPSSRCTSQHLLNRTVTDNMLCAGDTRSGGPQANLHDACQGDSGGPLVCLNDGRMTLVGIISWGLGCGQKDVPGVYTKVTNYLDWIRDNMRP

Regarding `COc1cc(C)c(S(=O)(=O)N[C@@H](Cc2cccc(C(=N)N)c2)C(=O)N2CCN(S(C)(=O)=O)CC2)c(C)c1C` [Compound 9], the inhibitory constant (Ki) is 8.2 µM in experiment [1]; 170 µM in experiment [2]; over 1 mM in experiment [3]; 20 nM in [4]; 860 nM in experiment [5]; over 1000 µM in experiment [6]. The figures for the Ki in [9] and in experiment [11] were 48 µM and 600 µM, respectively. The “Concentr. to double the Thrombin time” value in experiment [7] was 0.12 µmol/L. Further, in experiment [8], the “Concentr. to double the aPTT” value came out at 0.57 µmol/L. Besides, the “Concentr. to double the Prothrombin time” value in experiment [10] was 1.1 µmol/L.

For the compound `CN(C)C(=O)N1CCN(C(=O)C(Cc2cccc(C(=N)N)c2)NS(=O)(=O)c2ccc3ccccc3c2)CC1` (centres unmarked) [AMD 2-Naph CO-N(Me)2], the inhibition constant (Ki) in experiment [1] was 6.2 µM; in experiment [1] (read-out: Ki, Plasmin, Table 1), 6.1 µM; in [2] (Ki, Plasma kallikr., Table 1) it was 47 µM and 28 µM; in [12] it was 8.8 nM; in experiment [3], over 1 mM; in [4], 13 nM. The Ki in experiment [5] was 49 nM; in experiment [6] (Ki, Factor XIIa, Table 1) it was 200 µM and 130 µM; in [9] it was 24 µM and 22 µM; in experiment [11], over 1000 µM.

Consider `Cc1c(C)c(S(=O)(=O)N[C@@H](Cc2cccc(C(=N)N)c2)C(=O)N2CCN(S(C)(=O)=O)CC2)c(C)c2c1OC(C)(C)CC2` [Compound 10, Pmc-3-amidino-(L)-phenylalanine-4-methylsulfonyl piperazide hydrochloride], for which the Ki in [2] was 110 µM; in [3], over 1 mM; in [4], 5.3 nM; in [6], over 1000 µM; in [9] it was 37 µM; in experiment [11], 600 µM. In experiment [7], the “Concentr. to double the Thrombin time” value stood at 0.10 µmol/L. For the same compound, the “Concentr. to double the aPTT” value in experiment [8] is 0.44 µmol/L. Further, in experiment [10], the “Concentr. to double the Prothrombin time” value came to 0.8 µmol/L.

With `CC(=O)N1CCN(C(=O)C(Cc2cccc(C(=N)N)c2)NS(=O)(=O)c2ccc3c(c2)C(=O)c2ccccc2C3=O)CC1` (centres unmarked) [Compound 4], the Ki was 8.6 µM in experiment [1]; 7 µM in experiment [2]; over 1 mM in experiment [3]; 14 nM in experiment [4]; 26 nM in experiment [5]; 52 µM in [6]. Further, the inhibition constant (Ki) in [9] is 4.1 µM; in [11], over 1000 µM. Also, the “Concentr. to double the Thrombin time” value in experiment [7] was 0.085 µmol/L. In addition, the “concentration to double the TT” value in experiment [7] was “less than 10^-7 mol/1”. Moreover, the “Concentr. to double the aPTT” value in experiment [8] amounted to 1.2 µmol/L. Moreover, the “concentration to double the aPTT” value in [8] is at most 1 μmol/1. For the same compound, in experiment [10], the “Concentr. to double the Prothrombin time” value is 2.0 µmol/L. Moreover, the “concentration to double the PT” value in experiment [10] is recorded as at most 1 μmol/1.

For orientation: Ki means a measure of affinity in units of concentration, obtained from inhibition or displacement.
